Data on 20 compounds can be found in US20230312562A1, “TETRAHYDRO-3H-PYRAZOLO QUINOLONE AND TETRAHYDRO-3H-PYRROLO[3,2-F]QUINOLINE -CONTAINING COMPOUNDS AND USES THEREOF” (Purdue Research Foundation, priority 2020, published 2023).

Structures are written as SMILES.

The term inhibition denotes how much of the control response was suppressed. A lower inhibition goes with little suppression.

One assay relates to MDA-MB-231. In words: Inhibition of MDA-MB-231 viability/growth at 1 μM, 72 h. It is filed as cell-based. Particulars: 1 μM compound, 72 h incubation.
Turning to `Nc1n[nH]c2ccc([C@@H]3Nc4ccc5[nH]nnc5c4[C@H]4C5CC[C@@H](C5)[C@@H]34)cc12` (stereo in doubt) [Compound 18, 5-(6,7,7a,8,9,10,11,11a-Octahydro-3H-8,11-methano[1,2,3]triazolo[4,5-a]phenanthridin-7-yl)-1H-indazol-3-amine], the “Inhibition of MDA-MB-231, result in words” value (shortened to “Inhibition … in words”) is “loss in potency”.

Take `Nc1n[nH]c2ccc([C@@H]3Nc4ccc5[nH]cnc5c4[C@H]4C5CC[C@@H](C5)[C@@H]34)cc12` (stereo in doubt) [Compound 19, 5-(6,7,7a,8,9,10,11,11a-Octahydro-3H-8,11-methanoimidazo[4,5-a]phenanthridin-7-yl)-1H-indazol-3-amine]: the “Inhibition … in words” value is reported as “loss in potency”.

Turning to `Cc1n[nH]c2ccc3c(c12)[C@H]1C2CC[C@@H](C2)[C@H]1[C@H](c1ccc2[nH]nc(N)c2c1)N3` (stereo in doubt) [Compound 20, 5-(1-Methyl-6,7,7a,8,9,10,11,11a-octahydro-3H-8,11-methanopyrazolo[4,3-a]phenanthridin-7-yl)-1H-indazol-3-amine], the “Inhibition … in words” value was “loss of potency”.

Staying with this assay, now noted: Homo sapiens, MDA-MB-231; 1 μM compound, 72 h incubation.
Take `FC(F)(F)c1n[nH]cc1[C@@H]1Nc2ccc3[nH]ncc3c2[C@H]2[C@@H]3CC[C@@H](C3)[C@H]21` (stereo in doubt) [Compound 1, 7-(3-(Trifluoromethyl)-1H-pyrazol-4-yl)-6,7,7a,8,9,10,11,11a-octahydro 3H-8,11-methanopyrazolo[4,3-a]phenanthridine]: the inhibition at 1 µM was 5%. On the same count and under the same terms, the same measure for `c1n[nH]cc1[C@@H]1Nc2ccc3[nH]ncc3c2[C@H]2[C@@H]3CC[C@@H](C3)[C@H]21` (stereo in doubt) [Compound 2, 7-(1H-Pyrazol-4-yl)-6,7,7a,8,9,10,11,11a-octahydro-3H-8,11-methanopyrazolo[4,3-a]phenanthridine]: 12%; for `c1csc([C@@H]2Nc3ccc4[nH]ncc4c3[C@H]3[C@@H]4CC[C@@H](C4)[C@H]32)n1` (stereo in doubt) [Compound 3, 2-(6,7,7a,8,9,10,11,11a-Octahydro-3H-8,11-methanopyrazolo[4,3-a]phenanthridin-7-yl)thiazole]: 13%. For the compound `c1nc([C@@H]2Nc3ccc4[nH]ncc4c3[C@H]3[C@@H]4CC[C@@H](C4)[C@H]32)c[nH]1` (stereo in doubt) [Compound 4, 7-(1H-Imidazol-4-yl)-6,7,7a,8,9,10,11,11a-octahydro-3H-8,11-methanopyrazolo[4,3-a]phenanthridine], at 1 µM the inhibition was 14%.

With `Cn1cc([C@@H]2Nc3ccc4[nH]ncc4c3[C@H]3[C@@H]4CC[C@@H](C4)[C@H]32)c(C(F)(F)F)n1` (stereo in doubt) [Compound 5, 7-(1-Methyl-3-(trifluoromethyl)-1H-pyrazol-4-yl)-6,7,7a,8,9,10,11,11a-octahydro-3H-8,11-methanopyrazolo[4,3-a]phenanthridine], at 1 µM the inhibition was 70%. Compound `FC(F)(F)c1ccc([C@@H]2Nc3ccc4[nH]ncc4c3[C@H]3[C@@H]4CC[C@@H](C4)[C@H]32)cc1` (stereo in doubt) [Compound 6, 7-(4-(Trifluoromethyl)phenyl)-6,7,7a,8,9,10,11,11a-octahydro-3H-8,11-methanopyrazolo[4,3-a]phenanthridine] gave an inhibition at 1 µM of 21%.

In turn, `Fc1cnccc1[C@@H]1Nc2ccc3[nH]ncc3c2[C@H]2[C@@H]3CC[C@@H](C3)[C@H]21` (stereo in doubt) [Compound 7, 7-(3-Fluoropyridin-4-yl)-6,7,7a,8,9,10,11,11a-octahydro-3H-8,11-methanopyrazolo[4,3-a]phenanthridine] yielded an inhibition at 1 µM of 11%. `c1csc([C@@H]2Nc3ccc4[nH]ncc4c3[C@H]3[C@@H]4CC[C@@H](C4)[C@H]32)c1` (stereo in doubt) [Compound 8, 7-(Thiophen-2-yl)-6,7,7a,8,9,10,11,11a-octahydro-3H-8,11-methanopyrazolo[4,3-a]phenanthridine]: the inhibition at 1 µM stood at 13%. The same measure, in the same setting: the same measure for `Nc1ccc([C@@H]2Nc3ccc4[nH]ncc4c3[C@H]3[C@@H]4CC[C@@H](C4)[C@H]32)cn1` (stereo in doubt) [Compound 9, 5-(6,7,7a,8,9,10,11,11a-Octahydro-3H-8,11-methanopyrazolo[4,3-a]phenanthridin-7-yl)pyridin-2-amine]: 18%. The compound `N#Cc1cc([C@@H]2Nc3ccc4[nH]ncc4c3[C@H]3[C@@H]4CC[C@@H](C4)[C@H]32)ccc1F` (stereo in doubt) [Compound 10, 2-Fluoro-5-(−6,7,7a,8,9,10,11,11a-octahydro-3H-8,11-methanopyrazolo[4,3-a]phenanthridin-7-yl)benzonitrile] returned an inhibition at 1 µM of 3%. Still for that read-out and setting: the result for `Oc1ccc([C@@H]2Nc3ccc4[nH]ncc4c3[C@H]3C4CC[C@@H](C4)[C@@H]23)cc1` (stereo in doubt) [Compound 11, 4-(−6,7,7a,8,9,10,11,11a-Octahydro-3H-8,11-methanopyrazolo[4,3-a]phenanthridin-7-yl)phenol] reads 0%. The same measure, in the same setting: the result for `NC(=O)c1ccc([C@@H]2Nc3ccc4[nH]ncc4c3[C@H]3C4CC[C@@H](C4)[C@@H]23)cc1` (stereo in doubt) [Compound 12, 4-(6,7,7a,8,9,10,11,11a-Octahydro-3H-8,11-methanopyrazolo[4,3-a]phenanthridin-7-yl)benzamide] reads 17%; that for `Cn1cc([C@@H]2Nc3ccc4[nH]ncc4c3[C@H]3C4CC[C@@H](C4)[C@@H]23)c(C2CC2)n1` (stereo in doubt) [Compound 13, 7-(3-Cyclopropyl-1-methyl-1H-pyrazol-4-yl)-6,7,7a,8,9,10,11,11a-octahydro-3H-8,11-methanopyrazolo[4,3-a]phenanthridine], 0%. Still for that read-out and setting: the result for `Oc1ccc([C@@H]2Nc3ccc4[nH]ncc4c3[C@H]3C4CC[C@@H](C4)[C@@H]23)c(F)c1` (stereo in doubt) [Compound 14, 3-Fluoro-4-(6,7,7a,8,9,10,11,11a-octahydro-3H-8,11-methanopyrazolo[4,3-a]phenanthridin-7-yl)phenol] reads 11%; that for `COc1cnccc1[C@@H]1Nc2ccc3[nH]ncc3c2[C@H]2C3CC[C@@H](C3)[C@@H]12` (stereo in doubt) [Compound 15, 7-(3-Methoxypyridin-4-yl)-6,7,7a,8,9,10,11,11a-octahydro-3H-8,11-methanopyrazolo[4,3-a]phenanthridine], 12%. The compound `c1cc2[nH]ncc2cc1[C@@H]1Nc2ccc3[nH]ncc3c2[C@H]2C3CC[C@@H](C3)[C@@H]12` (stereo in doubt) [Compound 16, 7-(1H-Indazol-5-yl)-6,7,7a,8,9,10,11,11a-octahydro-3H-8,11-methanopyrazolo[4,3-a]phenanthridine] returned an inhibition at 1 µM of 78%. In the case of `c1cc2cn[nH]c2cc1[C@@H]1Nc2ccc3[nH]ncc3c2[C@H]2C3CC[C@@H](C3)[C@@H]12` (stereo in doubt) [Compound 17, 7-(1H-Indazol-6-yl)-6,7,7a,8,9,10,11,11a-octahydro-3H-8,11-methanopyrazolo[4,3-a]phenanthridine], the inhibition at 1 µM came out at 91%.
